Here are results for seven compounds from PubChem BioAssay (NCI).

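Each compound was tested at five concentrations against cells in 96-well plates for 48 hours. At the GI50, growth is halved. TGI is the concentration that stops growth completely.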 Where only a bound is given, the exact number is not on record here.

Test systems include A498 renal; DU-145 prostate; HCC-2998 colon; HOP-62 NSCLC; NCI-H226 lung; RXF 393 renal; SF-268 CNS; SNB-75 CNS; UACC-257 melanoma; UO-31 renal.
Holding throughout (experiment): inhibition of tumour cell growth, NCI panel, 48 h

As for `Cc1[nH]nc2c1N=C(c1ccccc1F)c1cc(C#N)ccc1N2`, the GI50 with A498 renal was 0.146 µM; with DU-145 prostate, 3 µM; in the assay with HCC-2998 colon, 3.58 µM; with HOP-62 NSCLC, 0.899 µM; with NCI-H226 lung, 0.322 µM; in the assay on RXF 393 renal, 0.105 µM. The GI50 in the assay with SF-268 CNS is 0.316 µM; with SNB-75 CNS, 0.036 µM; in the assay with UACC-257 melanoma it was 9.71 µM; with UO-31 renal it was 0.435 µM. Further, the TGI with A498 renal is 1.08 µM; with DU-145 prostate it was 12.8 µM; in the assay with HCC-2998 colon it was 15.9 µM; with HOP-62 NSCLC, 8.85 µM; in the assay on NCI-H226 lung, 4.11 µM; in the assay on RXF 393 renal it was 1.99 µM. Further, the TGI in the assay with SF-268 CNS was 5.8 µM; in the assay with SNB-75 CNS, 0.717 µM; with UACC-257 melanoma, over 25 µM; in the assay on UO-31 renal it was 4.01 µM.

For `COc1cc(/C=C2\CC3C4CC=C5C[C@@H](N6CCCC6)CC[C@]5(C)C4CC[C@]3(C)[C@H]2OC(C)=O)ccc1OCCN1CCCCC1` (stereo not given in full), the GI50 in the assay with A498 renal was 1.76 µM; with DU-145 prostate it was 1.57 µM; with HCC-2998 colon it was 0.397 µM; in the assay with HOP-62 NSCLC, 1.49 µM; in the assay on NCI-H226 lung, 2.14 µM; in the assay with RXF 393 renal, 1.63 µM. The GI50 in the assay with SF-268 CNS was 2.26 µM; with SNB-75 CNS, 2.56 µM; in the assay on UACC-257 melanoma, 1.93 µM; in the assay on UO-31 renal, 1.46 µM. Further, the TGI in the assay with A498 renal was found to be 3.41 µM; in the assay on DU-145 prostate it was 3.67 µM; with HCC-2998 colon it was 0.85 µM; in the assay on HOP-62 NSCLC, 2.87 µM; in the assay with NCI-H226 lung, 4.21 µM; in the assay with RXF 393 renal, 3.64 µM. The TGI came out at 5.6 µM in the assay on SF-268 CNS, 5.03 µM in the assay with SNB-75 CNS, 3.91 µM in the assay on UACC-257 melanoma and 2.83 µM in the assay with UO-31 renal.

For the compound `O=C(Nc1cccc2cccnc12)c1ccc(N2C(=O)[C@@H]3[C@H](C2=O)[C@@H]2C=C[C@H]3C2)cc1`, the GI50 was 14.5 µM in the assay with A498 renal; 29.9 µM in the assay with DU-145 prostate; 35.4 µM with HCC-2998 colon; 36.7 µM in the assay on HOP-62 NSCLC; 19.8 µM in the assay on NCI-H226 lung; 30.8 µM with RXF 393 renal. In addition, the GI50 was 35.7 µM in the assay with SF-268 CNS, over 44.2 µM with SNB-75 CNS, 30.5 µM in the assay on UACC-257 melanoma and 3.1 µM in the assay with UO-31 renal. In addition, the TGI in the assay on A498 renal is over 93.2 µM; in the assay on DU-145 prostate it was over 100 µM; in the assay on HCC-2998 colon, over 100 µM; in the assay on HOP-62 NSCLC it was over 100 µM; in the assay on NCI-H226 lung it was over 88.6 µM; in the assay with RXF 393 renal it was over 100 µM. For the same compound, the TGI in the assay with SF-268 CNS, in the assay on SNB-75 CNS, in the assay with UACC-257 melanoma and in the assay on UO-31 renal was over 100 µM each time.

As for `CCn1c(-c2nonc2N)nc2c(C#CC(C)(C)O)nc(O[C@@H](CN)c3ccccc3)cc21`, the GI50 in the assay on A498 renal is 0.00553 µM; in the assay on DU-145 prostate it was 0.112 µM; in the assay with HCC-2998 colon, 0.0478 µM; in the assay with HOP-62 NSCLC, 0.294 µM; in the assay on NCI-H226 lung, 0.624 µM; in the assay on RXF 393 renal it was 0.0338 µM. Moreover, the GI50 in the assay on SF-268 CNS was 0.574 µM; in the assay with SNB-75 CNS it was 0.122 µM; with UACC-257 melanoma it was 0.611 µM; with UO-31 renal, 3.52 µM. The TGI in the assay with A498 renal stood at 0.171 µM; in the assay with DU-145 prostate, 4.64 µM; with HCC-2998 colon it was 0.858 µM; with HOP-62 NSCLC it was 1.98 µM; in the assay with NCI-H226 lung it was 1.57 µM; with RXF 393 renal, 0.394 µM. The TGI came out at 1.98 µM with SF-268 CNS, 4.06 µM in the assay on SNB-75 CNS, 1.54 µM with UACC-257 melanoma and 7.37 µM with UO-31 renal.

For `COc1ccc(NC(=O)c2sc3nc(C)c(C(O)c4ccc(OC)cc4)cc3c2N)cc1` (stereo not given), the GI50 in the assay with A498 renal was 0.156 µM; in the assay on DU-145 prostate it was 1.65 µM; in the assay with HCC-2998 colon, 0.804 µM; in the assay on HOP-62 NSCLC it was 2.03 µM; in the assay with NCI-H226 lung, 3.54 µM; with RXF 393 renal, 0.411 µM. In addition, the GI50 with SF-268 CNS is 2.28 µM; with SNB-75 CNS, 0.815 µM; in the assay with UACC-257 melanoma, 11.1 µM; with UO-31 renal, 2.85 µM. The TGI is 39.1 µM in the assay with A498 renal; over 50 µM with DU-145 prostate; 2.89 µM in the assay with HCC-2998 colon; over 50 µM in the assay with HOP-62 NSCLC; over 50 µM in the assay on NCI-H226 lung; 2.99 µM with RXF 393 renal. Moreover, the TGI was over 50 µM in the assay with SF-268 CNS, 17.3 µM with SNB-75 CNS, over 50 µM in the assay on UACC-257 melanoma and over 50 µM with UO-31 renal.

Turning to `BrC(Br)(Br)c1cnc2ccccc2n1`, the GI50 was 9 µM in the assay on A498 renal; 2.21 µM with DU-145 prostate; 1.67 µM in the assay on HCC-2998 colon; 2.27 µM with HOP-62 NSCLC; 3.91 µM with NCI-H226 lung; 1.06 µM with RXF 393 renal. The GI50 in the assay on SF-268 CNS is 4 µM; with SNB-75 CNS, 2.94 µM; in the assay on UACC-257 melanoma, 2.02 µM; in the assay with UO-31 renal, 0.793 µM. The TGI in the assay with A498 renal turned out to be 21.2 µM; in the assay with DU-145 prostate, 7.14 µM; in the assay on HCC-2998 colon it was 3.6 µM; with HOP-62 NSCLC it was 7.9 µM; with NCI-H226 lung, 8.38 µM; in the assay on RXF 393 renal it was 2.4 µM. The TGI was 17.5 µM with SF-268 CNS, 13.2 µM with SNB-75 CNS, 6.48 µM with UACC-257 melanoma and 2.39 µM in the assay on UO-31 renal.

Turning to `CCOC(=O)N1C/C(=C/c2ccc(OC)cc2)C(=O)/C(=C/c2ccc(OC)cc2)C1`, the GI50 is 3.13 µM with A498 renal; 4.18 µM with DU-145 prostate; 1.81 µM in the assay with HCC-2998 colon; 2.1 µM in the assay on HOP-62 NSCLC; 3.29 µM in the assay with NCI-H226 lung; 1.56 µM in the assay with RXF 393 renal. The GI50 in the assay on SF-268 CNS is 3.58 µM; with SNB-75 CNS, 2.93 µM; in the assay with UACC-257 melanoma it was 2.88 µM; in the assay on UO-31 renal it was 1.9 µM. For the same compound, the TGI is over 29 µM in the assay with A498 renal; over 100 µM with DU-145 prostate; 3.38 µM with HCC-2998 colon; 5.11 µM with HOP-62 NSCLC; 18.9 µM in the assay on NCI-H226 lung; 3.09 µM with RXF 393 renal. Also, the TGI was over 45.1 µM in the assay on SF-268 CNS, 31.1 µM in the assay on SNB-75 CNS, 11.4 µM in the assay with UACC-257 melanoma and 5.19 µM with UO-31 renal.
